# Entries after “also recorded” stand apart in the source; their conditions may differ. Like-named read-outs stand apart in the source and are kept apart here.
# Key:
# HCC1954 cells = assay: Antiproliferation assay (Cell-titer Glo, 72 h); format: cell-based; details: Homo sapiens, 72 h, means and standard deviations from three independent assays, read-out: HCC1954 (GI50/μM)
# Method: (§1) Breast-cancer cell lines (SK-Br3, HCC-1954) were purchased from Korea Cell Line Bank (Seoul, Korea) and were cultured in RPMI medium supplemented with 10% FBS and penicillin/streptomycin (Welgene, Seoul, Korea). All cell lines were maintained at 37 °C in a cell incubator in the presence of 5% CO2.
# (§2) Breast-cancer cells in culture media (100 μL volume/well, 5000 SK-Br3 cells/well, 1000 HCC-1954 cells/well) were seeded in tissue culture-treated 96-well plates, and incubated at a cell incubator for 24 h. Serially diluted compounds (3-fold, 10 point from 10 mM, duplicated) were pre-plated and 500 nL of compound solutions were pin-transferred to the cells in the assay plates using pintool system (JANUS liquid handler, PerkinElmer, Waltham, MA, USA) and incubated at a cell incubator for 72 h. Cell-titer Glo^TM reagent (50 μL, Promega Corp., Madison, WI, USA) was added to each well, and the luminescence signal was read using an Envision^TM plate reader (PerkinElmer, Waltham, MA, USA). The titration curve fitting and IC50 values were generated using Prism 7.0 s/w (GraphPad, San Diego, CA, USA).
# SK-Br3 cells = assay: Antiproliferation assay (Cell-titer Glo, 72 h); format: cell-based; details: Homo sapiens, SK-BR-3; 72 h; means and standard deviations from three independent assays; read-out: SK-Br3 (GI50/μM)
# Method: as §1, §2
# cyclinK = assay: Western blot of cyclinK in SK-Br3 cells; format: cell-based, human; details: SK-Br3 cells, 0.2, 1 μM, 2 h
# Method: (§3) The proteins were transferred to nitrocellulose membrane (Gelman Sciences, Ann Arbor, MI, USA) by electroblotting. The membranes were blocked with 5% non-fat dry milk (MB Cell, Seoul, Korea), incubated with primary antibodies for overnight at 4 °C. After the washing steps were performed with TBST solution, the membranes were incubated with HRP-conjugated secondary antibodies for 1 h at rt. After the secondary washing steps using TBST solution, protein bands on the membranes were visualized using enhanced chemiluminescence ECL detection reagent (Biorad Laboratories, Hercules, CA, USA).
# Pol II p-CTD (Ser2) = assay: Western blot of Pol II p-CTD (Ser2) in SK-Br3 cells; format: cell-based, human; details: SK-Br3 cells, 0.2, 1 μM, 2 h
# Excerpt: For Western blot analysis, the following antibodies were used: anti-Pol II CTD (2629S, Cell Signaling Technology, Danvers, MA, USA), anti-Pol II p-CTD (Ser2) (13499S, Cell Signaling Technology), anti-cyclinK (A301-939A-M, Bethyl Laboratories), anti-IRS1 (3407S, Cell Signaling Technology), anti-WNT1 (SC-514531, Santa Cruz Biotechnology, Dallas, TX, USA), anti-β-actin (MAB1501R, Millipore, Burlington, MA, USA), and horseradish peroxidase (HRP)-conjugated secondary antibodies (anti-mouse GTX213112-01; anti-rabbit GTX213110-01) (Genetex, Irvine, CA, USA).
# as §3, with “Cells were lysed with lysis buffer containing 50 mM Tris pH 7.4, 150 mM NaCl, 1 mM EDTA, 1% NP-40, and 0.25% sodium deoxycholate supplemented with protease-inhibitor and phosphatase-inhibitor cocktails. The lysate samples (25 μg/lane) were loaded onto 6–12% sodium dodecyl sulfate polyacrylamide gel and separated by electrophoresis (SDS-PAGE). The proteins” for “The proteins”
# CDK12/CyclinK = CDK12/CyclinK (Homo sapiens, UniProt Q9NYV4); assay: In vitro CDK12/cyclinK kinase assay; format: biochemical; design: purchased Reaction Biology Corp. (CRO that ran the assay)
# CDK12/CyclinK, sequence (Q9NYV4 whole entry): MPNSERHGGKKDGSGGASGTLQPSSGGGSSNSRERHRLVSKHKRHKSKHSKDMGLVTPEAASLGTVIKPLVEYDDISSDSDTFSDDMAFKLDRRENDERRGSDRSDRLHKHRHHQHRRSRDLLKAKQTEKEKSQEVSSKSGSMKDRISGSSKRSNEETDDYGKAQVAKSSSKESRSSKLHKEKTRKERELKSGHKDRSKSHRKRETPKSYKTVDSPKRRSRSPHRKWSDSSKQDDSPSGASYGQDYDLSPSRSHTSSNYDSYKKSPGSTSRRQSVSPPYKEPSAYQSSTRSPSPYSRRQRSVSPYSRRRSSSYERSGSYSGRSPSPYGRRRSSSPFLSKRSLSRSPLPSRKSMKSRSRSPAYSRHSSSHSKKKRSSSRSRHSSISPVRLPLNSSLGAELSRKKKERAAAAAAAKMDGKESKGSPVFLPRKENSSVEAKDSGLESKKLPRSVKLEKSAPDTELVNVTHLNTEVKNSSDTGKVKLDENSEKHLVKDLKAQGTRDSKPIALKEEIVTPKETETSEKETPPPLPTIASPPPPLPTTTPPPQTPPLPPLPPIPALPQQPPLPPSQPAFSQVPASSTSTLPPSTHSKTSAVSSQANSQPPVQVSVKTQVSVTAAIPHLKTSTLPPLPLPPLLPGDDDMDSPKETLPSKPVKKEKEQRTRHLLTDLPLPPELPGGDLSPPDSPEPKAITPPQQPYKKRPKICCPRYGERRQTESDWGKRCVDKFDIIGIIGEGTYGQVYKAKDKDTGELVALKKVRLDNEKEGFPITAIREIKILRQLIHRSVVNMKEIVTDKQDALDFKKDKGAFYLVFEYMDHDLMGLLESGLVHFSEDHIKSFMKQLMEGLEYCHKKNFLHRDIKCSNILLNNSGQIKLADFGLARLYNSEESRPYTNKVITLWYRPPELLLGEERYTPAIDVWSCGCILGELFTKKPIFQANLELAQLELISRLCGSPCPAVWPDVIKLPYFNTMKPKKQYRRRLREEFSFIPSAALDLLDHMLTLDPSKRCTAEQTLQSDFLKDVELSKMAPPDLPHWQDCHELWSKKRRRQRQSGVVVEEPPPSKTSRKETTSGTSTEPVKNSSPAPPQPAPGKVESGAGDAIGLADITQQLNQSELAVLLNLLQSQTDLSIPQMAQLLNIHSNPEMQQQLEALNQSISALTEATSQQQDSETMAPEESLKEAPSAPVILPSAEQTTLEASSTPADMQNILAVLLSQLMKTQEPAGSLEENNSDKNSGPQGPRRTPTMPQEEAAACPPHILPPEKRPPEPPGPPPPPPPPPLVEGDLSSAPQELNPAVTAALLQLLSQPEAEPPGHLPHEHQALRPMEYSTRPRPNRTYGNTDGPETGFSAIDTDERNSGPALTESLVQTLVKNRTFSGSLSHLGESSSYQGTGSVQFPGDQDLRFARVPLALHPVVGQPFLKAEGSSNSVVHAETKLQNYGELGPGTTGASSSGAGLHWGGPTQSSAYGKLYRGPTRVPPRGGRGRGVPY
# CDK12/CyclinK, sequence (O75909 whole entry partner): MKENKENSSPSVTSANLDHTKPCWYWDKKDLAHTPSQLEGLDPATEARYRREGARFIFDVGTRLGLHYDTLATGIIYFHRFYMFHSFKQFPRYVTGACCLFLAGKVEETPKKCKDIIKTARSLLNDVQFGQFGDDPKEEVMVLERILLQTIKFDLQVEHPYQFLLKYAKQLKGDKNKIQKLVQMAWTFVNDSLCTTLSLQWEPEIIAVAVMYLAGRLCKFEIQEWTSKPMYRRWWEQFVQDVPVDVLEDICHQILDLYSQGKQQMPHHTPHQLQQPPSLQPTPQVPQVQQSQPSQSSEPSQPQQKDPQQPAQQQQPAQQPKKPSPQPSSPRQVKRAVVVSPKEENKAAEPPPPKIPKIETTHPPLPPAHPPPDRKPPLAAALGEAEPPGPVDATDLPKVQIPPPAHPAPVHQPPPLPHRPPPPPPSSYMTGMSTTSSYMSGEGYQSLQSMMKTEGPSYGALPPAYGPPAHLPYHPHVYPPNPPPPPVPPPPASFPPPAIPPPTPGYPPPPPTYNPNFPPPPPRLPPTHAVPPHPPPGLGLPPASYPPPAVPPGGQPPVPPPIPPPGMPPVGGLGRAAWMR
# Method: In vitro CDK12/cyclinK assays for all compounds and in vitro kinome-wide inhibition profiling of 30d at 10 μM were performed by a CRO company (Reaction Biology Corp., San Diego, CA, USA).
# [1] = Tables 1-4, read-out: CDK12/CyclinK (IC50/μM)
SMILES,GI50 (HCC1954 cells),GI50 (SK-Br3 cells),IC50 (CDK12/CyclinK; [1]),IC50 (CDK12/CyclinK; read-out: CDK12/cyclinK IC50),cyclinK level (Western blot) (cyclinK),PolII p-CTD (Ser2) level (Western blot) (Pol II p-CTD (Ser2))
"CC(C)n1cnc2c(NCc3ccc(-c4ccncc4)cn3)nc(-c3cccnc3)nc21 [Compound 17d, N-([3,4′-Bipyridin]-6-ylmethyl)-9-isopropyl-2-(pyridin-3-yl)-9H-purin-6-amine]",0.887 ± 0.04 µM,0.741 ± 0.034 µM,0.627 µM,–,downregulated Pol II p-CTD (Ser2) and cyclinK in a dose-dependent manner,downregulated Pol II p-CTD (Ser2) and cyclinK in a dose-dependent manner
"Cc1cc(-c2ccc(CNc3nc(-c4cccnc4)nc4c3ncn4C(C)C)nc2)ccn1 [Compound 17e, 9-Isopropyl-N-((2′-methyl-[3,4′-bipyridin]-6-yl)methyl)-2-(pyridin-3-yl)-9H-purin-6-amine]",0.23 ± 0.044 µM,0.277 ± 0.038 µM,0.481 µM,–,downregulated Pol II p-CTD (Ser2) and cyclinK in a dose-dependent manner,downregulated Pol II p-CTD (Ser2) and cyclinK in a dose-dependent manner
"CC(C)n1cnc2c(NCc3ccc(-c4cccnc4)cn3)nc(-c3cccnc3)nc21 [Compound 17b, N-([3,3′-Bipyridin]-6-ylmethyl)-9-isopropyl-2-(pyridin-3-yl)-9H-purin-6-amine]",0.627 ± 0.128 µM,0.862 ± 0.178 µM,0.582 µM,–,downregulated Pol II p-CTD (Ser2) and cyclinK in a dose-dependent manner,downregulated Pol II p-CTD (Ser2) and cyclinK in a dose-dependent manner
"CC(C)n1cnc2c(NCc3ccc(-c4ccccn4)cn3)nc(-c3cccnc3)nc21 [Compound 17a, N-([2,3′-Bipyridin]-6′-ylmethyl)-9-isopropyl-2-(pyridin-3-yl)-9H-purin-6-amine]",0.106 ± 0.011 µM,0.151 ± 0.025 µM,0.433 µM,–,most prominent cyclinK degradation; also recorded: downregulated Pol II p-CTD (Ser2) and cyclinK in a dose-dependent manner,downregulated Pol II p-CTD (Ser2) and cyclinK in a dose-dependent manner
"CC(C)n1cnc2c(NCc3ccc(-c4cccnc4)nc3)nc(-n3cc(CCO)nn3)nc21 [Compound 26b, 2-(1-(6-(([2,3′-Bipyridin]-5-ylmethyl)amino)-9-isopropyl-9H-purin-2-yl)-1H-1,2,3-triazol-4-yl)ethan-1-ol]",6.16 ± 0.429 µM,8.3 ± 0.882 µM,0.539 µM,–,–,–
"CCn1cnc2c(NCc3ccc(-c4cccnc4)nc3)nc(-c3cccnc3)nc21 [Compound 28a, N-([2,3′-Bipyridin]-5-ylmethyl)-9-ethyl-2-(pyridin-3-yl)-9H-purin-6-amine]",0.142 ± 0.014 µM,0.215 ± 0.053 µM,0.016 µM,< 0.03 µM,–,–
"Cc1ccc(-c2ccc(CNc3nc(-c4cccnc4)nc4c3ncn4C(C)C)nc2)cn1 [Compound 17c, 9-Isopropyl-N-((6′-methyl-[3,3′-bipyridin]-6-yl)methyl)-2-(pyridin-3-yl)-9H-purin-6-amine]",13.6 ± 1.16 µM,24.6 ± 4.99 µM,1.11 µM,–,–,–
"CC(C)n1cnc2c(NCc3ccc(-c4cccnc4)nc3)nc(-c3cnc(N)nc3)nc21 [Compound 18l, N-([2,3′-Bipyridin]-5-ylmethyl)-2-(2-aminopyrimidin-5-yl)-9-isopropyl-9H-purin-6-amine]",0.162 ± 0.011 µM,0.242 ± 0.042 µM,0.087 µM,< 0.1 µM,–,–

# The next lines start with results.
GI50 (HCC1954 cells),GI50 (SK-Br3 cells),IC50 (CDK12/CyclinK; [1]),IC50 (CDK12/CyclinK; read-out: CDK12/cyclinK IC50),SMILES,cyclinK level (Western blot) (cyclinK),PolII p-CTD (Ser2) level (Western blot) (Pol II p-CTD (Ser2))
1.35 ± 0.243 µM,1.5 ± 0.112 µM,0.155 µM,–,"CC(C)n1cnc2c(NCc3ccc(-c4cccnc4)nc3)nc(-c3ccc4[nH]ccc4c3)nc21 [Compound 18d, N-([2,3′-Bipyridin]-5-ylmethyl)-2-(1H-indol-5-yl)-9-isopropyl-9H-purin-6-amine]",–,–
1.33 ± 0.393 µM,1.7 ± 0.165 µM,0.147 µM,–,"CC(C)n1cnc2c(NCc3ccc(-c4cccnc4)nc3)nc(-c3ccc(F)nc3)nc21 [Compound 21a, N-([2,3′-Bipyridin]-5-ylmethyl)-2-(6-fluoropyridin-3-yl)-9-isopropyl-9H-purin-6-amine]",–,–
4.23 ± 0.214 µM,3.71 ± 0.557 µM,0.486 µM,–,"CC(C)n1cnc2c(NCc3ccc(-c4cccnc4)nc3)nc(-c3cnc4ccccc4c3)nc21 [Compound 18g, N-([2,3′-Bipyridin]-5-ylmethyl)-9-isopropyl-2-(quinolin-3-yl)-9H-purin-6-amine]",–,–
0.497 ± 0.088 µM,0.795 ± 0.063 µM,0.15 µM,–,"CC(C)n1cnc2c(NCc3ccc(-c4cccnc4)nc3)nc(-c3ccc(N)cc3)nc21 [Compound 19c, N-([2,3′-Bipyridin]-5-ylmethyl)-2-(4-aminophenyl)-9-isopropyl-9H-purin-6-amine]",–,–
1.86 ± 0.148 µM,2.58 ± 0.167 µM,0.104 µM,–,"CC(C)n1cnc2c(NCc3ccc(-c4cccnc4)nc3)nc(-c3ccc4[nH]ncc4c3)nc21 [Compound 18f, N-([2,3′-Bipyridin]-5-ylmethyl)-2-(1H-indazol-5-yl)-9-isopropyl-9H-purin-6-amine]",–,–
0.399 ± 0.051 µM,0.608 ± 0.115 µM,0.179 µM,–,"CC(C)n1cnc2c(NCc3ccc(-c4cccnc4)nc3)nc(-c3ccc4cn[nH]c4c3)nc21 [Compound 18e, N-([2,3′-Bipyridin]-5-ylmethyl)-2-(1H-indazol-6-yl)-9-isopropyl-9H-purin-6-amine]",–,–

# From PMC9506414, “Novel 2,6,9-Trisubstituted Purines as Potent CDK Inhibitors Alleviating Trastuzumab-Resistance of HER2-Positive Breast Cancers” (Pharmaceuticals, 2022)
